Results from PubChem BioAssay AID1963870 (Molecular Pharmacology Branch, DTP, NCI, 2024).
pIC50: −log10 of the molar value.

System: 292921-168-R-J2-PDC KRAS tumor spheroid viability
Assay: Anticancer human tumor 292921-168-R-J2-PDC patient-derived pancreatic carcinoma cell line growth inhibition [KRAS2]
Conditions: spheroids with HUVEC and MSC; for pIC50: curve of first compound; for viability, T/C: stronger effect = lower value
In short: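 Combination screen of spheroid viability in tumor-cell co-cultures with endothelial (HUVEC) and mesenchymal stem cell stroma. Each agent was tested in half-log dilutions, topping at clinical Cmax or at 10 microM without a known Cmax.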

[1] = second compound 0.1 µM, first compound 0.0316 µM
[2] = second compound 0.1 µM, first compound 0.1 µM
[3] = second compound 0.1 µM, first compound 0.316 µM
[4] = second compound 0.1 µM, first compound 1 µM
[5] = second compound 0.1 µM, first compound 3.16 µM
[6] = second compound 0.316 µM, first compound 0.0316 µM
[7] = second compound 0.316 µM, first compound 0.1 µM
[8] = second compound 0.316 µM, first compound 0.316 µM
[9] = second compound 0.316 µM, first compound 1 µM
[10] = second compound 0.316 µM, first compound 3.16 µM
[11] = second compound 1 µM, first compound 0.0316 µM
[12] = second compound 1 µM, first compound 0.1 µM
[13] = second compound 1 µM, first compound 0.316 µM
[14] = second compound 1 µM, first compound 1 µM
[15] = second compound 1 µM, first compound 3.16 µM
[16] = second compound 3.16 µM, first compound 0.0316 µM
[17] = second compound 3.16 µM, first compound 0.1 µM
[18] = second compound 3.16 µM, first compound 0.316 µM
[19] = second compound 3.16 µM, first compound 1 µM
[20] = second compound 3.16 µM, first compound 3.16 µM
[21] = second compound 10 µM, first compound 0.0316 µM
[22] = second compound 10 µM, first compound 0.1 µM
[23] = second compound 10 µM, first compound 0.316 µM
[24] = second compound 10 µM, first compound 1 µM
[25] = second compound 10 µM, first compound 3.16 µM
[26] = second compound 0.1 µM, first compound 10 µM
[27] = second compound 0.316 µM, first compound 10 µM
[28] = second compound 1 µM, first compound 10 µM
[29] = second compound 3.16 µM, first compound 10 µM
[30] = second compound 10 µM, first compound 10 µM
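Note: drug exposure lasted seven days after spheroids formed for three days.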
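Throughout, for viability, T/C: percent of DMSO vehicle control viability which is 100%.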

| Compound | pIC50 (second compound 0.1 µM) | pIC50 (second compound 0.316 µM) | pIC50 (second compound 1 µM) | pIC50 (second compound 3.16 µM) | pIC50 (second compound 10 µM) | viability, T/C [1] | viability, T/C [2] | viability, T/C [3] | viability, T/C [4] | viability, T/C [5] | viability, T/C [6] | viability, T/C [7] | viability, T/C [8] | viability, T/C [9] | viability, T/C [10] | viability, T/C [11] | viability, T/C [12] | viability, T/C [13] | viability, T/C [14] | viability, T/C [15] | also measured |
| --- | --- | --- | --- | --- | --- | --- | --- | --- | --- | --- | --- | --- | --- | --- | --- | --- | --- | --- | --- | --- | --- |
| CC1COCCN1c1cc(-c2ccnn2C)c2ccnc(-c3ccn[nH]3)c2n1 (stereo not given) + CC1OCC2(CCN(c3cnc(Sc4ccnc(N)c4Cl)c(N)n3)CC2)C1N | > 8.00 | > 8.00 | > 8.00 | > 8.00 | > 8.00 | 23.8% | 15.9% | 15% | 15% | 16.2% | 20.6% | 14.6% | 13% | 13.3% | 14.5% | 21.9% | 13.4% | 12.3% | 12.3% | 12.3% | viability, T/C (second compound 0.1 µM, first compound 0.01 µM): 44.6%; viability, T/C (second compound 0.316 µM, first compound 0.01 µM): 38.9%; viability, T/C (second compound 1 µM, first compound 0.01 µM): 33.5%; viability, T/C (second compound 3.16 µM, first compound 0.01 µM): 28.2%; viability, T/C [16]: 17.8%; viability, T/C [17]: 13.4%; viability, T/C [18]: 11%; viability, T/C [19]: 10.2%; viability, T/C [20]: 10.9%; viability, T/C (second compound 10 µM, first compound 0.01 µM): 25.3%; viability, T/C [21]: 18.2%; viability, T/C [22]: 13.1%; viability, T/C [23]: 10.2%; viability, T/C [24]: 10.7%; viability, T/C [25]: 9.89% |
| CCNC(=O)CC1N=C(c2ccc(Cl)cc2)c2cc(OC)ccc2-n2c(C)nnc21 (stereo not given) + CC1OCC2(CCN(c3cnc(Sc4ccnc(N)c4Cl)c(N)n3)CC2)C1N | 6.54 | 7.32 | > 7.50 | > 7.50 | > 7.50 | 69.1% | 60.6% | 48.1% | 40.1% | 29.4% | 53.5% | 45.5% | 31.4% | 31.7% | 25.1% | 45.6% | 43.7% | 33.5% | 31.6% | 19.9% | viability, T/C [26]: 27.5%; viability, T/C [27]: 19.7%; viability, T/C [28]: 18.3%; viability, T/C [16]: 37.4%; viability, T/C [17]: 34.6%; viability, T/C [18]: 26.2%; viability, T/C [19]: 23%; viability, T/C [20]: 20%; viability, T/C [29]: 16.1%; viability, T/C [21]: 33.8%; viability, T/C [22]: 31.1%; viability, T/C [23]: 28.4%; viability, T/C [24]: 23.1%; viability, T/C [25]: 20.9%; viability, T/C [30]: 17.3% |
| CC(C)NCC(C(=O)N1CCN(c2ncnc3c2C(C)CC3O)CC1)c1ccc(Cl)cc1 (stereo not given) + C=CC(=O)N1CCN(c2nc(=O)n(-c3c(C)ccnc3C(C)C)c3nc(-c4c(O)cccc4F)c(F)cc23)C(C)C1 | < 5.00 | < 5.00 | 5.22 | 5.79 | > 7.50 | 95.3% | 91.2% | 88.1% | 86.3% | 79.4% | 96.3% | 96.2% | 85.7% | 81.1% | 67.4% | 92.7% | 82.3% | 76.1% | 75.8% | 63.8% | viability, T/C [26]: 50.9%; viability, T/C [27]: 52.7%; viability, T/C [28]: 39.8%; viability, T/C [16]: 51.9%; viability, T/C [17]: 63.9%; viability, T/C [18]: 58.7%; viability, T/C [19]: 53.1%; viability, T/C [20]: 44.4%; viability, T/C [29]: 25.9%; viability, T/C [21]: 18.6%; viability, T/C [22]: 22.1%; viability, T/C [23]: 17.8%; viability, T/C [24]: 15.3%; viability, T/C [25]: 18.3%; viability, T/C [30]: 11.8% |
| Cn1nccc1Nc1nccc(-c2cc3c(s2)C(C)(C)N(CCN2CCOCC2)C3=O)n1 + COc1cc2nc(C)nc(NC(C)c3cc(N)cc(C(F)(F)F)c3)c2cc1OC1CCOC1 | 7.19 | 7.26 | 7.33 | 7.49 | > 7.50 | 74.8% | 34.9% | 14.8% | 11.1% | 9.76% | 66.2% | 32.1% | 16.4% | 10.4% | 8.74% | 60.1% | 31.6% | 15.8% | 10.9% | 9.75% | viability, T/C [26]: 9.52%; viability, T/C [27]: 9.26%; viability, T/C [28]: 10.1%; viability, T/C [16]: 50.7%; viability, T/C [17]: 26.1%; viability, T/C [18]: 14.3%; viability, T/C [19]: 10.2%; viability, T/C [20]: 8.41%; viability, T/C [29]: 10.2%; viability, T/C [21]: 25.4%; viability, T/C [22]: 15.9%; viability, T/C [23]: 10.3%; viability, T/C [24]: 9.05%; viability, T/C [25]: 9.73%; viability, T/C [30]: 7.56% |
